Here are results for one compound from patent publication US9162975B2, “Phenyl carbamate compounds for use in alleviating or treating pain” (Bio-Pharm Solutions Co., Ltd., priority 2011, dated 2015).

As a reminder, the ED50 is the dose at which the effect has come halfway, by size or by number of responders.

Test [1] deals with STZ-induced pain model in rats. Put plainly: Antiallodynic activity on streptozotocin (STZ)-induced diabetic pain model, von Frey. The format is in vivo, Sprague-Dawley rats. Particulars: 0.5 hr, paw withdrawal threshold relative to sham. On the procedure: Male, Sprague-Dawley rats (200-220 g, Nara Bio, Korea) were habituated for 1 week before surgery and allowed free access to food and water throughout the experimentation. Room temperature and humidity were maintained at 24±2° C. and 50±10%, respectively.
STZ-induced diabetic pain model was established with a modified method of Rakieten et al. (1963) and Bertrand Aubel et al. (2004). All animals were fasted 4 to 6 hr prior to STZ injection. STZ (sigma, USA) was dissolved in 20 mM sodium citrate buffer, pH 5.5 (sigma, USA) and intraperitoneally injected at 75 mg/kg, 4 ul/g, bw into the rats Sham controls were injected with same volume of 20 mM sodium citrate buffer, pH 5.5 and vehicle controls were identical to STZ model, except for administration of vehicles. Rats were supplied with 10% sucrose water for 2 days against sudden hypoglycemia. 3 days later, the induction of diabetes was checked by measurement of tail vein blood glucose levels with a blood glucose meter. (LifeScan OneTouch Ultra, USA). If blood glucose was not >300 mg/dl by 72 hr, the rat was excluded from the diabetic group.
(§1) Tactile sensitivity (Mechanical allodynia) was evaluated using von Frey monofilaments before and after treatment of compound example 1 and animals were used withdrawal threshold value was less than 4 g. […] The tactile sensitivity for ipsilateral hind paw was measured using the up-and-down method (Dixon, 1980) with seven von Frey monofilaments (0.4, 1, 2, 4, 6, 8, and 15 g) to 3 trials. […] The 50% paw withdrawal threshold for each paw was calculated using the following formula: [Xth] log=[vFr] log+ky where [vFr] is the force of the last von Frey used, k=0.2249 which is the average interval (in log units) between the von Frey monofilaments, and y is a value that depends upon the pattern of withdrawal responses (Dixon, 1980).
Antiallodynic effect of compound of Example 1 was evaluated at the dose of 10, 30 and 60 mg/kg (n=6), intraperitoneally administrated in a volume of 5 ul/g, bw in a vehicle of 30% (v/v) PEG. […]

The subject of test [2] is SNL model in rats. Put plainly: Antiallodynic activity on Chung model (SNL, spinal nerve ligation), von Frey. The format is in vivo, Sprague-Dawley rats. To be noted: Rattus norvegicus, po, 1 h. As for the experimental part: Male Sprague-Dawley rats (200-220 g, Orient Bio, Korea) were habituated for 1 week before the experiment and allowed free access to food and water throughout the experimentation. Room temperature and humidity were maintained at 24±2° C. and 50±10%, respectively. Neuropathic surgery (SNL, Spinal nerve ligation) model was done as described in Kim and Chung (1992). Briefly, animal under gaseous anesthesia with isoflurane a 4:4 flow ratio of NO2. The left lumber spinal nerve L5 and L6 were isolated and tightly ligated with 4˜0 silk thread. The wound was treated with a gentamicin antibiotics solution (4 mg/kg, 4 ul/g, bw), and the wound muscle was closed with cat cut chrome 4/0 thread and skin was closed dafilon 4/0 tread. Sham controls were prepared in the same manner as the spinal nerves were exposed, but no ligated L5 and L6 nerves. But, vehicle controls were identical to SNL model, except for administration of vehicles.
as §1, with “treatment” for “treatment of compound example 1”
All animals were fasted 18 h before the administration of the compounds. Antiallodynic effect of compounds of Examples 1, 63 and 65 were evaluated at the dose of 5, 10 and 30 mg/kg (n=5˜6), orally administrated in a volume of 5 ul/g, bw in a vehicle of 30% (v/v) PEG 400 (Examples 1 and 63) or 20% (v/v) Tween 80 (Example 65). […]

The test system of test [3] is ICR mice. Put plainly: Hot-plate test. To be noted: withdrawal latency relative to vehicle control, 150 mg/kg po, hot plate 55±1° C. In kind it is in vivo. As for the experimental part:
To examine the pain relief effect of the phenyl carbamate compounds, a hot-plate test was conducted in general pain animal model referring to Current Protocols in Neuroscience; Behavioral Neuroscience Unit 8.9.
ICR mice (male, 30-35 g; Orient Bio, Korea) were habituated before test in test room for 1 hour Animals were fasted 2 hr before administration of compounds. Each of Compound 1, 2, 3, 4, 5, 63, 65, and 67 was orally administered at the dose of 150 mg/kg, 10 ul/g, bw (n=7˜10/group). All compounds were dissolved in a vehicle of 30% (v/v) PEG 400 or 20% (v/v) Tween 80. The control group was treated the vehicle without compounds.
0.5 hr after the administration of compounds, the mice were put on a hot plate pre-heated to 55±1° C. (Hu, X. et al, 2008), and then, measured as the withdrawal latency (cut-off time: 30 sec) time until the point when each mouse was taking off a paw from the plate, shaking, licking a paw or hind leg, or jumping from the plate.
In general terms: Thermal pain tests record how soon the animal reacts.

Take `C[C@H](OC(N)=O)[C@@H](O)c1ccccc1Cl` [Example 1, 1-(2-chlorophenyl)-(S)-1-hydroxypropyl-(S)-2-carbamate]: the “% Control (STZ-induced pain model)” value in test [1] (dose 10 mg/kg intraperitoneally) is recorded as 33.9%; in test [1] (dose 30 mg/kg intraperitoneally), 49.9%; in test [1] (dose 60 mg/kg intraperitoneally) it was 73.7%. The compound further registered an ED50 in test [2] of 11.1 mg/kg. In addition, in test [3], the “Hot-plate test (150 mg/kg, 0.5 h, po) % Control” value is given as 135.7%.
